Results on 14 compounds are retold here after ChEMBL document CHEMBL1128905, “Synthesis and biological activity of 5-heteroaryl benzodiazepines: analogues of YM022” (Bioorg Med Chem Lett, 1996).

Structures are written as SMILES.

For assay [1], the target named is T1, Gastrin/cholecystokinin type B receptor (Rattus norvegicus, UniProt P30553).
T1 sequence (P30553 whole entry): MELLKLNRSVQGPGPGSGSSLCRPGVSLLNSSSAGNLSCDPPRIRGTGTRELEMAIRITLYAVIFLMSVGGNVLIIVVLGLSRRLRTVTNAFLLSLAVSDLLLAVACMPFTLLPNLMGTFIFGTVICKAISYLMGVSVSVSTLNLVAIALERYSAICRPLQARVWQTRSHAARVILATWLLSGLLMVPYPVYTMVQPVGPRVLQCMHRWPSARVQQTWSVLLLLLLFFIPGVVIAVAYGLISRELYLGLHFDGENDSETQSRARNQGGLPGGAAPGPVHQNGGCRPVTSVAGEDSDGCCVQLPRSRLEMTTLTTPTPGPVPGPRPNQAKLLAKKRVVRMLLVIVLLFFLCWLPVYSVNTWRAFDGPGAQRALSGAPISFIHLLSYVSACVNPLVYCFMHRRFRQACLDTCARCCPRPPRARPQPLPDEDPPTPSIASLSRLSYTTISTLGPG
Put plainly: Binding affinity towards gastrin/Cholecystokinin type B receptor from rat brain using [125I]CCK-8 as the radioligand.

Assay [2] has as its target T2, Cholecystokinin receptor type A (Rattus norvegicus, UniProt P30551).
T2 sequence (P30551 whole entry): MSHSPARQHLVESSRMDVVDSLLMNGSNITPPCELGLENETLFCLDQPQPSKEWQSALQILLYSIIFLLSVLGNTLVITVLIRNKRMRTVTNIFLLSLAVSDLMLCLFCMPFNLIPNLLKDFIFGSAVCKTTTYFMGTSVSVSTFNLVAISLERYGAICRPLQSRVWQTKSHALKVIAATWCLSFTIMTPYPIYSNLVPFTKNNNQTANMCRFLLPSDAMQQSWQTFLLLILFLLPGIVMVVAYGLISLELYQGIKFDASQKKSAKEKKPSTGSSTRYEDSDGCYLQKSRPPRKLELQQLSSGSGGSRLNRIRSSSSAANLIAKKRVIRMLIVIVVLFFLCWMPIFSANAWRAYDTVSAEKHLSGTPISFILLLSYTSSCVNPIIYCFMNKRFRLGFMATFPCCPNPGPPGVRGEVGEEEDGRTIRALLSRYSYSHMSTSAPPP
Put plainly: Binding affinity towards Cholecystokinin type A receptor from rat pancreas using [I125]-L-364,718 as the radioligand.

In assay [3] the test system is Rattus norvegicus. Put plainly: Compound was evaluated for in vivo inhibition of pentagastrin induced gastric acid secretion in rats by 50% after iv administration. In kind it is functional. The conditions noted are these: Stomach.
In assay [4] the test system is Rattus norvegicus. Put plainly: Compound was evaluated for in vivo inhibition of pentagastrin induced gastric acid secretion in rats after iv administration at dose of 0.1 umol/kg. In kind it is functional. As to conditions: Stomach.

The IC50 is the concentration at which inhibition is half-maximal. Read a low IC50 as higher potency. The term ED50 denotes the dose at which the effect has come halfway, by size or by number of responders. A higher ED50 goes with a need for a large dose. As to `Cc1cccc(NC(=O)NC2N=C(c3ccccn3)c3ccccc3N(CC(=O)c3ccccc3C)C2=O)c1` (centres undefined), the IC50 in assay [1] stood at 0.13 nM; in assay [2], 980 nM. Besides, it took a dose of 0.0167 µmol/kg to reach the 50% effect level in the assay on Rattus norvegicus [3] (ED50).
One may read the inhibition in vivo as the drop in the measured response relative to a control, in per cent. Lower therefore signals little suppression. In the case of `Cc1cccc(NC(=O)NC2N=C(c3nccn3C)c3ccccc3N(CC(=O)C(C)(C)C)C2=O)c1` (centres undefined), the values for the IC50 in assay [1] and in assay [2] were 4.52 nM and 844 nM, respectively. This compound also displayed an inhibition in vivo at 0.1 µmol/kg in the assay with Rattus norvegicus [4] of 49%.
For `Cc1cccc(NC(=O)NC2N=C(c3cnccn3)c3ccccc3N(CC(=O)C(C)(C)C)C2=O)c1` (centres undefined), the half-maximal inhibitory concentration (IC50) in assay [1] was found to be 0.88 nM; in assay [2], 1360 nM. This compound also registered an inhibition in vivo at 0.1 µmol/kg in the assay on Rattus norvegicus [4] of 55%.
Take `Cc1cccc(NC(=O)NC2N=C(c3ccccn3)c3ccccc3N(CC(=O)C(C)(C)C)C2=O)c1` (centres undefined): the IC50 in assay [1] was 0.44 nM; in assay [2], 470 nM. Further, in the assay on Rattus norvegicus [3], it took a dose of 0.016 µmol/kg to reach the 50% effect level (ED50).
On to `Cc1cccc(NC(=O)NC2N=C(c3ccccc3)c3ccccc3N(CC(=O)c3ccccc3C)C2=O)c1` (centres undefined), for which the figures for the IC50 in assay [1] and in assay [2] were 0.11 nM and 146 nM, respectively.
For `Cc1cccc(NCNC2N=C(c3ccn[nH]3)c3ccccc3N(CC(=O)C(C)(C)C)C2=O)c1` (centres undefined), the IC50 was greater than 100 nM in assay [1] and 105 nM in assay [2]. Moreover, the inhibition in vivo at 0.1 µmol/kg with Rattus norvegicus [4] worked out at 18%.
The matching figures for `Cc1cccc(NC(=O)NC2N=C(c3cccnc3)c3ccccc3N(CC(=O)C3CCCC3)C2=O)c1` (centres undefined): 1.6 nM, 80 nM and 34%.
For `Cc1cccc(NC(=O)NC2N=C(c3ccncc3)c3ccccc3N(CC(=O)C3CCCC3)C2=O)c1` (centres undefined), in that order: 48 nM, greater than 10000 nM and 15%.
In the case of `Cc1cccc(NC(=O)NC2N=C(c3ccccn3)c3ccccc3N(CC(=O)C3CCCC3)C2=O)c1` (centres undefined), the IC50 amounted to 0.12 nM in assay [1] and 2600 nM in assay [2]. This compound also returned an ED50 with Rattus norvegicus [3] of 0.0189 µmol/kg.
In the case of `Cc1cccc(NC(=O)NC2N=C(c3ncc[nH]3)c3ccccc3N(CC(=O)C(C)(C)C)C2=O)c1` (centres undefined), the IC50 in assay [1] came to 8 nM; in assay [2], 2610 nM. The compound further showed an inhibition in vivo at 0.1 µmol/kg with Rattus norvegicus [4] of 14%.
Take `Cc1cccc(NC(=O)NC2N=C(c3ccccc3)c3ccccc3N(CC(=O)C(C)(C)C)C2=O)c1` (centres undefined): the IC50 in assay [2] was 111 nM.
Take `Cc1cccc(NC(=O)NC2N=C(c3cnc[nH]3)c3ccccc3N(CC(=O)C(C)(C)C)C2=O)c1` (centres undefined): the IC50 turned out to be 26.1 nM in assay [1] and 232 nM in assay [2]. Also, in the assay on Rattus norvegicus [4], the inhibition in vivo at 0.1 µmol/kg came out at 25%.
Turning to `Cc1cccc(NCNC2N=C(c3nccs3)c3ccccc3N(CC(=O)C(C)(C)C)C2=O)c1` (centres undefined), the IC50 in assay [1] is 0.8 nM; in assay [2], 433 nM. In the assay on Rattus norvegicus [4], this compound gave an inhibition in vivo at 0.1 µmol/kg of 58%.
The matching figures for `Cc1cccc(NC(=O)NC2N=C(c3ccncc3)c3ccccc3N(CC(=O)c3ccccc3C)C2=O)c1` (centres undefined): 18 nM, 670 nM and 37%.
